Laboratory results taken from patent US12668600B2 (Kumquat Biosciences Inc., priority 2023, dated 2026).

How the values were obtained:
Assay type in all cases: biochemical
KRAS G12S = molecular target: T1, KRAS G12S (Homo sapiens, UniProt P01116, G12S); assay: HTRF KRAS-SOS1 interaction assay, KRAS G12S; conditions: binned ≤2 μM / >2 μM, read-out: Inhibition of KRAS G12S (IC50)
T1 construct: made in house; host or cells: E. coli, e.g. BL21 (DE3)
How it was run: (§1)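 Read-out: HTRF ratio 665/620 nm after ≥10 min incubation of compound with GST-KRAS/anti-GST-Eu and His-hSOS1/anti-6His-XL665. Duplicate dose series, 10 μM down to 0.01 μM. Buffer HEPES pH 7.4, NaCl, DTT, BSA, Igepal.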

KRAS WT = molecular target: T2, KRAS WT (Homo sapiens, UniProt P01116); assay: HTRF KRAS-SOS1 interaction assay, wildtype KRAS; conditions: binned ≤2 μM / >2 μM, read-out: Inhibition of KRAS WT (IC50)
T2 construct: made in house; host or cells: E. coli, e.g. BL21 (DE3)
How it was run: as §1

KRAS G12V = molecular target: T3, KRAS G12V (Homo sapiens, UniProt P01116, G12V); assay: HTRF KRAS-SOS1 interaction assay, KRAS G12V; conditions: binned ≤2 μM / >2 μM, read-out: Inhibition of KRAS G12V (IC50)
T3 construct: made in house; host or cells: E. coli, e.g. BL21 (DE3)
How it was run: as §1

KRAS G12D = molecular target: T4, KRAS G12D (Homo sapiens, UniProt P01116, G12D); assay: HTRF KRAS-SOS1 interaction assay, KRAS G12D; conditions: binned ≤2 μM / >2 μM, read-out: Inhibition of KRAS G12D (IC50)
T4 construct: made in house; host or cells: E. coli, e.g. BL21 (DE3)
How it was run: as §1

T4 sequence (P01116 1-188 isoform P01116-2 G12D): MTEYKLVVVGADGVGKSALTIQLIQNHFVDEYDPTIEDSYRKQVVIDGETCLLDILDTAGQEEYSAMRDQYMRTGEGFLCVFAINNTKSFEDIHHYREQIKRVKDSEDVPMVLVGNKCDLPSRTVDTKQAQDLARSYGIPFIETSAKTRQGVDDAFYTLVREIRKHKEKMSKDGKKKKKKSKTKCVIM
T2 sequence (P01116 1-188 isoform P01116-2): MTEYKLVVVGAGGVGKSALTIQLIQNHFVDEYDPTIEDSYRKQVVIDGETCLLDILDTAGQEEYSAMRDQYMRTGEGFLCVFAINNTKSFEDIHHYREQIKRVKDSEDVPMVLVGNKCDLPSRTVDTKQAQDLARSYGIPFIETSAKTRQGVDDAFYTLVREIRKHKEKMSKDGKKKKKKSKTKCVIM
T3 sequence (P01116 1-188 isoform P01116-2 G12V): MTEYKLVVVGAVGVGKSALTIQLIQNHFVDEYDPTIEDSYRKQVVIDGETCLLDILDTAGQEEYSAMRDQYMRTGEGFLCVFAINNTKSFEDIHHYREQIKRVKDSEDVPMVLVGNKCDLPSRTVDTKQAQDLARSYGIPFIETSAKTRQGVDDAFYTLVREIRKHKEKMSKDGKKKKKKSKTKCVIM
T1 sequence (P01116 1-188 isoform P01116-2 G12S): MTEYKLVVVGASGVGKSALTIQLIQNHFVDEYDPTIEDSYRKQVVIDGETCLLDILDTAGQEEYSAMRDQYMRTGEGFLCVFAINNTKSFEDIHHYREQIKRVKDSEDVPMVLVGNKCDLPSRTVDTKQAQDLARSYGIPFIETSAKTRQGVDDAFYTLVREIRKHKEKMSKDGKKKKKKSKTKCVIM

| IC50 (KRAS G12S) [nM] | IC50 (KRAS WT) [nM] | IC50 (KRAS G12V) [nM] | IC50 (KRAS G12D) [nM] | SMILES |
| --- | --- | --- | --- | --- |
| ≤ 2000 | ≤ 2000 | ≤ 2000 | ≤ 2000 | N#Cc1c(N)sc2c(F)ccc(-c3c(Cl)c4c5c(nc(OC[C@@]67CCCN6C[C@H](F)C7)nc5c3F)N(C(/C=C/F)c3cccnc3N)CCO4)c12 (single isomer, unassigned) [Compound 708] |
| ≤ 2000 | ≤ 2000 | ≤ 2000 | ≤ 2000 | C[C@H](Oc1nc2c3c(nc(-c4ccc(F)c5sc(N)c(C#N)c45)c(F)c3n1)OCCN2[C@H](C)c1cccnc1N)C1CCCN1C (single isomer, unassigned) [Compound 670] |
| ≤ 2000 | ≤ 2000 | ≤ 2000 | ≤ 2000 | C[C@H](c1cccnc1N)N1CCOc2c(C(F)(F)F)c(-c3ccc(F)c4sc(N)c(C#N)c34)c(F)c3nc(OCC4(CN5CCC(F)(F)CC5)CC4)nc1c23 [Compound 778, 2-amino-4-(4-((R)-1-(2-aminopyridin-3-yl)ethyl)-2-((1-((4,4-difluoropiperidin-1-yl)methyl)cyclopropyl)methoxy)-10-fluoro-8-(trifluoromethyl)-5,6-dihydro-4H-[1,4]oxazepino[5,6,7-de]quinazolin-9-yl)-7-fluorobenzo[b]thiophene-3-carbonitrile] |
| ≤ 2000 | ≤ 2000 | ≤ 2000 | ≤ 2000 | CC[C@H](c1cc(F)cnc1N)N1CCOc2c(C(F)(F)F)c(-c3ccc(F)c4sc(N)c(C#N)c34)c(F)c3nc(OC[C@@]45CCCN4C[C@H](F)C5)nc1c23 [Compound 870, 2-amino-4-(4-((R)-1-(2-amino-5-fluoropyridin-3-yl)propyl)-10-fluoro-2-(((2R,7aS)-2-fluorotetrahydro-1H-pyrrolizin-7a(5H)-yl)methoxy)-8-(trifluoromethyl)-5,6-dihydro-4H-[1,4]oxazepino[5,6,7-de]quinazolin-9-yl)-7-fluorobenzo[b]thiophene-3-carbonitrile] |
